Values of other authors in patent US6270797A (USV Limited, priority 2000, dated 2001).

Key:
[1] = system: insulin receptors
[2] = system: beta cells of pancreatic-islet tissue

In the case of Cc1cnc(C(=O)NCCc2ccc(S(=O)(=O)NC(=O)NC3CCCCC3)cc2)cn1 [Glipizide, 1-cyclohexyl-3-[[p-[2-(5-methylpyrazinecarboxamido)ethyl]phenyl]sulfonyl]urea], the “number of insulin receptors” value [1] is given as “may increase the number of insulin receptors” and the “insulin secretion from the beta cells of pancreatic-islet tissue” value [2] is given as “stimulates insulin secretion”.
